Laboratory results from patent publication US20160354402A1, “COMPOSITIONS” (GLOBALACORN LTD, priority 2013, published 2016).
Entries after “also recorded” stand apart in the source; their conditions may differ.

What was measured:
[1] = system: L5 interneurons in cortical slices from Tsc1+/− mice; assay: Ex vivo whole-cell patch-clamp recordings in cortical slices from Tsc1+/− mice; type: cell-based, mouse
Experimental: Wild type and Tsc1^+/− mice (P14-P16) were anaesthetized with ether and killed by decapitation in agreement with the European Directive 86/609/EEC requirements. The brain was rapidly removed and placed in an oxygenated ice-cold saline buffer. Transverse 300 μm-thick coronal slices were cut using a vibratome (Leica VT1000S; Leica Microsystems Inc., Deerfield, Ill.) in ice-cold protecting solution oxygenated with 95% O2 and 5% of CO2. Prior to recording, slices were incubated in an artificial cerebrospinal fluid (ACSF) solution containing (in mM): 125 NaCl, 3.5 KCl, 1 CaCl2, 2 MgCl2, 1.25 NaH2PO4, 26 NaHCO3, and 10 glucose, equilibrated at pH 7.3 with 95% O2 and 5% CO2 at room temperature (22-25° C.) for at least 1 h to allow recovery.
Slices were transferred to the recording chamber and perfused with oxygenated recording ACSF at 3 ml/min. Neurons were visualized using infrared differential interference contrast (IR-DIC) microscopy. […] It was not compensated and was monitored during each experiment. […]
Wild type and Tsc1^+/− mice (P14-P16) were anaesthetized, their brains removed rapidly and placed in an oxygenated ice-cold saline buffer. […] The effects of AppCH2ppA administration were monitored post slice administration ex vivo. […]

Tsc1+/− mice = assay: In vivo intracortical EEG recordings of spontaneous seizures in Tsc1+/− mice (mouse model of Tuberous Sclerosis); conditions: i.p. injection
Experimental: This study followed the Institut National de la Santé et de la Recherche Médicale guidelines for animal care. All experiments were performed on postnatal days P9-P20 of inbred C57Bl6 strain of both sexes of Tsc1^mut/wt (Tsc1^+/−) mice issued from breeding of C57Bl6 Tsc1^wt females and Tsc1^mut/wt males Tsc1^mut/wt.
Surgery was performed under isoflurane anesthesia. In brief, the skull of the animal was cleaned of skin and periosteum. The skull was covered by glue and dental cement except for a 4-9 mm^2 window above the somatosensory cortex from one or two hemispheres. Two plastic bars were fixed to the nasal and occipital bones of the pups head by dental cement. After surgery, animals were warmed, and left for an hour for recovery from anesthesia. During recordings, the head was fixed to the frame of the stereotaxic apparatus by attached bars; animals were surrounded by a cotton nest and heated via a thermal pad (36.6° C.-37.7° C.). […]
Electroencephalography (EEG) recordings were performed in non-anesthetized head-restrained Tsc1^+/− and control Tsc1^wt mice. […] Recordings were analyzed off-line using Clampfit and MATLAB software. […] During EEG recordings animals were monitored visually to determine behavioral correlates of each electrographic epileptic discharge. […] Local field potentials were analyzed by the custom-written, MATLAB based programs. […]

[2] = system: CA1 pyramidal neurons in hippocampal slices; assay: Ex vivo murine hippocampal slice model of epilepsy (picrotoxin, Mg2+-free); type: cell-based, mouse; conditions: epileptic conditions: picrotoxin 100 μM, Mg2+ free perfusion solution; dose response
Experimental: Slices were prepared and used as described previously (Melnik S, Wright M, Tanner J A, Tsintsadze T, Tsintsadze V, Miller A D, Lozovaya N (2006) Diadenosine polyphosphate analog controls postsynaptic excitation in CA3-CA1 synapses via a nitric oxide-dependent mechanism. J Pharmacol Exp Ther 318 (2):579-588. doi:10.1124/jpet.105.097642).
Slices were prepared as described previously (Melnik S, Wright M, Tanner J A, Tsintsadze T, Tsintsadze V, Miller A D, Lozovaya N (2006) Diadenosine polyphosphate analog controls postsynaptic excitation in CA3-CA1 synapses via a nitric oxide-dependent mechanism. J Pharmacol Exp Ther 318 (2):579-588. doi:10.1124/jpet.105.097642). Addition of picrotoxin (100 μM) and removal of Mg^2+ in the perfusion solution induced spontaneous epileptiform events lasted for 5-10 s (FIG. 7). […] In the continued presence of picrotoxin and Mg^2+ free extracellular solution, bursting at this rate continued for at least 2 h. The effects of AppCH2ppA administration were monitored post slice administration ex vivo (FIGS. 8 and 9a).

| Compound | spontaneous glutamatergic activity from L5 interneurons ([1]; bath administration, 10 μM, Vh=−70 mV, cortical slices from Tsc1+/− mice) | seizure like electrical impulses on individual cortical neurons ([1]; ex vivo, cortical slices, P14-P16 mice) | anti-epileptic effect (spontaneous seizure activity) (Tsc1+/− mice; 30 μM in 200 μl (6 nmol; 300 nmol/kg or 0.25 mg/kg), Tsc1+/− mice) | anti-epileptic effect (spontaneous seizure activity) (Tsc1+/− mice; 100 μM in 200 μl (20 nmol; 1000 nmol/kg or 0.84 mg/kg), Tsc1+/− mice P14-P16) | antiepileptic effect on frequency of epileptiform discharges [2] |
| --- | --- | --- | --- | --- | --- |
| Nc1ncnc2c1ncn2[C@@H]1O[C@H](COP(=O)(O)OP(=O)(O)CP(=O)(O)OP(=O)(O)OC[C@H]2O[C@@H](n3cnc4c(N)ncnc43)C(O)C2O)C(O)C1O (some centres unmarked) [AppCH2ppA] | desensitizes glutamatergic activity relative to control | inhibits seizure like electrical impulses | partial | eliminates seizures virtually completely; also recorded: essentially complete anti-epileptic effect | – |
| Nc1ncnc2c1ncn2[C@@H]1O[C@H](COP(=O)(O)OP(=O)(O)NP(=O)(O)OP(=O)(O)OC[C@H]2O[C@@H](n3cnc4c(N)ncnc43)[C@H](O)[C@@H]2O)[C@@H](O)[C@H]1O [AppNHppA] | – | – | – | – | completely inactive |
